Measurements published in PMC6894747 (PLoS Pathogens, 2019).
Positions of bridges follow the written chain, without caps; N, C: chain ends. Residues, ends and D or L forms follow the SMILES beside them. No end group written: not given here.

How the values were obtained:
[1] = tested on: HIV-1 IIIB (subtype B, X4); type: cell-based; details: for IC50: IIIB (subtype B, X4)
Method: Briefly, 1×10^5/mL MT-2 or M7 cells were infected with different HIV-1 viruses at 100 TCID50 (50% tissue culture infective dose) in the presence or absence of peptides at graded concentrations overnight. Then the culture supernatants were replaced with equal volume of fresh medium. On the fourth day post-infection, supernatants were collected and mixed with equal volume of 5% Triton X-100. […] The IC50 values were calculated with CalcuSyn software [35–36], and inhibition curves of best fit were generated with GraphPad Prism.

gp41 NHR peptide N36 = target: T1, gp41 NHR peptide N36 (Human immunodeficiency virus type 1 group M subtype B, UniProt P04578); test: Thermostability of 6-HB formed with N36, by CD; type: binding, HIV-1; details: CD at 222 nm, 20 to 98 °C at 1.2 °C/min, 10 μM peptide in PBS
T1 construct: purchased KareBay Biochem, Inc; host or cells: solid-phase chemical synthesis
Method: CD spectroscopy was conducted as previously described. Briefly, a CHR peptide was incubated with NHR peptide N36 at concentration of 10 μM at 37 °C for 30 min. The separated C-peptides were also measured. The CD spectra were measured on a Jasco spectropolarimeter (model J-815; Jasco, Inc., Easton, MD, USA), using a 1-nm bandwidth with a 1-nm step resolution from 195 to 260 nm at room temperature. The spectra were corrected by subtraction of PBS. The α-helical content was calculated from the CD signal by dividing the mean residue ellipticity [θ] at 222 nm by the value expected for 100% helix formation (-33,000 deg·cm^2·dmol^-1). The thermal denaturation experiment was performed by monitoring the changes in ellipticity [θ] at 222 nm at increasing temperature from 20 to 98 °C at a rate of 1.2 °C/min; data were acquired at a 1-nm bandwidth at 222 nm at a frequency of 0.25 Hz. The melting curve was smoothed, and the midpoint of the thermal unfolding transition (Tm) value was taken as the maximum of the derivative d[θ] 222/dt. Tm value was detected at a peptide concentration of 10 μM in PBS buffer.

rhesus monkey IgG = test: Isothermal titration calorimetry (ITC); type: binding; details: 300 μM peptide injected into 30 μM rhesus monkey IgG, PBS, 25 °C
Method: ITC assay was performed with an ITC microcalorimeter instrument (NANO ITC, TA Instruments, Lindon, UT) as described previously. In brief, 300 μM peptides were dissolved in PBS and injected into the chamber containing 30 μM of rhesus monkey IgG. The experiments were carried out at 25 °C. The time between injections was 300 s, and the stirring speed was 300 rpm. The heats of dilution were determined in control experiments by injecting peptides into PBS and then subtracting from the heats produced in the corresponding peptide-IgG binding experiments. Data acquisition and analysis were performed using the Origin software, and the best fitting curves were generated with GraphPad Prism.

M7 cells = test: Cytotoxicity assay (CCK-8); type: cell-based; details: up to 5 μM, 48 h, triplicate
Method: (§1) The potential cytotoxicity of peptides on MT-2 and M7 cells was measured by using the Cell Counting Kit-8 according to the manufacturer’s instructions (CCK-8, Dojindo Laboratories, Kumamoto, Japan). Briefly, 100 μL of a peptide at graded concentrations were added to equal volumes of cells (10^4 cells/well) in a 96-well plate. Cell viability was evaluated using the CCK-8 kit after incubation at 37 °C for 2 days. Incubation with CCK-8 reagents at 37 °C for another 4 h, the absorbance at 450 nm was measured with an ELISA reader, and the percentage of cytotoxicity was calculated.

MT-2 cells = test: Cytotoxicity assay (CCK-8); type: cell-based; details: for in vitro cytotoxicity to MT-2 cells: up to 5 μM, 48 h, CCK-8, triplicate
Method: as §1

ICR mice = test: Safety of IBP-CP24 for ICR mice; type: in vivo; details: for serum ALT level / serum creatinine level: i.p., CP24 10 mg/kg, IBP-CP24 10 or 100 mg/kg, before and 5 h, 1, 4 days post-injection
Method: Body weight changes of mice at different time points were monitored. Creatinine and ALT in the sera were measured by using the creatinine and ALT assay kits (NJJCBIO, Nanjing, China) before injection and 5 h, 1, and 4 days post-injection, respectively. All mice were sacrificed at day 15 post-injection, and the livers and kidneys were collected for haematoxylin and eosin (H&E) staining.

HIV-1 JR-CSF = test: Prophylactic efficacy against HIV-1 challenge in humanized mice; type: in vivo, humanized NRG (NRG-hu HSC) mice; details: for cell-associated HIV-1 DNA and RNA in spleen and bone marrow: day 28 post-infection, real-time PCR; for mice HIV-1 viremia-positive at 7 dpi / mice with viremia at 14 dpi / viral load at 7 dpi: humanized mice; for mice HIV-1 viremia-positive at 7 dpi: 20 mg/kg i.p. 2 h before challenge, 6 h post-infection and daily for 3 days, CP24 n = 8, IBP-CP24 n = 7; for mice with viremia at 14 dpi / viral load at 7 dpi: 20 mg/kg i.p. prophylactic regimen; for viral load at 7 dpi: plasma HIV-1 RNA
Method: The mice were challenged with HIV-1 JR-CSF (5 ng p24/mouse) through retro-orbital injection at 2 h post-treatment. Then the mice were treated with PBS or peptides at 6 hours post-infection and once every day for 3 consecutive days. Plasma samples were obtained for viral load determination at days 0, 7, 14, 21 and 28 post-infection.
HIV-1 genomic RNA was purified from plasma by using the QIAamp Viral RNA Mini Kit. The RNA was reverse-transcribed and quantitatively detected by real-time PCR with the TaqMan Fast Virus 1-Step PCR kit (Thermo Fisher Scientific). We used the forward primer 5’-[…]-3’ and the reverse primer 5’-[…]-3’ to detect the HIV gag gene. The probe (FAM-[…]-QSY7) used for detection was ordered from Applied Biosystems, and the reactions were set up following the manufacturer’s guidelines and were run on the QuantStudio 6 Flex PCR system (Applied Biosystems). The limit of detection of each real-time PCR was 4 copies per reaction. Accordingly, owing to the relatively small volume of plasma in mice (about 50–100 μL total blood), the limit of detection was 400 copies/mL plasma. The copy numbers below the detectable limit were set as 1. Triplicate reactions were performed for each sample.
To evaluate cell-associated HIV-1 DNA, total DNA was extracted from mouse spleen and bone marrow cells using the DNeasy Mini Kit (Qiagen). HIV-1 DNA was quantified by real-time PCR. DNA from serial dilutions of ACH2 cells, which contain 1 copy of the HIV genome in each cell, was used to create a standard curve.
To detect cell-associated HIV-1 RNA, total cell RNA was extracted from mouse spleen and bone marrow cells using the RNeasy Plus Mini Kit (Qiagen). The RNA was reverse-transcribed to cDNA and then quantified by real-time PCR, as described above. DNA from serial dilutions of ACH2 cells was used to generate a standard curve.

[2] = rhesus monkeys, 10 mg/kg i.v. daily for one month, within two months; indirect ELISA
Method: After incubation at 4 °C for 2 h and washes with PBS-T for three times, we added the serially 10-fold diluted plasma of the PBS- or peptide-treated rhesus monkeys. Goat Anti-Monkey IgG H&L (HRP) (Abcam) were incubated for 1 h at 37 °C and washed for five times.

T1 sequence (P04578 546-581): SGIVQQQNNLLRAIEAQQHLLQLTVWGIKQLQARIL

Molecule: CC[C@H](C)[C@H](NC(=O)[C@H](CC(C)C)NC(=O)[C@H](CCC(=O)O)NC(=O)[C@H](CCC(=O)O)NC(=O)[C@@H](NC(=O)[C@H](CCCCN)NC(=O)[C@H](CCCCN)NC(=O)[C@@H](NC(=O)[C@H](Cc1ccc(O)cc1)NC(=O)[C@H](CCC(=O)O)NC(=O)[C@H](CCC(=O)O)NC(=O)[C@@H](NC(=O)[C@H](CCCCN)NC(=O)[C@H](CCCCN)NC(=O)[C@H](CC(=O)O)NC(=O)[C@H](Cc1c[nH]c2ccccc12)NC(=O)[C@H](CCC(=O)O)NC(=O)[C@H](CCC(=O)O)NC(=O)[C@H](Cc1c[nH]c2ccccc12)NC(=O)[C@@H](NC(=O)[C@H](CCSC)NC(=O)[C@@H](NC(=O)[C@@H]1CSSC[C@H](NC(=O)[C@@H](N)CC(=O)O)C(=O)N[C@@H](C)C(=O)N[C@@H](Cc2c[nH]c3ccccc23)C(=O)N[C@@H](Cc2c[nH]cn2)C(=O)N[C@@H](CC(C)C)C(=O)NCC(=O)N[C@@H](CCC(=O)O)C(=O)N[C@@H](CC(C)C)C(=O)N[C@@H](C(C)C)C(=O)N[C@@H](Cc2c[nH]c3ccccc23)C(=O)N1)[C@@H](C)O)[C@@H](C)O)[C@@H](C)CC)[C@@H](C)O)[C@@H](C)CC)C(=O)N[C@@H](CCCCN)C(=O)N[C@@H](CCCCN)C(=O)N[C@@H](CO)C(=O)O [IBP-CP24] (H-DCAWHLGELVWCTMTWEEWDKKIEEYTKKIEELIKKS-OH; disulfide 2-12; N-terminus and C-terminus assumed)
- fold more potent than CP24 against HIV-1 IIIB [1]: about 2.3 fold
- IC50 [1]: 0.0059 µM
- Tm of the 6-HB formed with N36 (gp41 NHR peptide N36): 85.25 °C
- Kd (rhesus monkey IgG): 0.946 µM
- in vitro cytotoxicity to M7 cells (M7 cells): no significant in vitro cytotoxicity
- non-cytotoxic concentration fold higher than IC50 for HIV-1 inhibition (MT-2 cells; 5 μM versus IC50, MT-2 and M7 cells): more than 800 fold
- in vitro cytotoxicity to MT-2 cells (MT-2 cells): no significant in vitro cytotoxicity
- in vivo toxicity, overall (ICR mice; 10 and 100 mg/kg i.p.): no obvious in vivo toxicity
- H&E stained sections of liver and kidneys (ICR mice; day 15 post-injection, versus PBS): no pathological abnormality
- serum ALT level (ICR mice; versus PBS): no significant difference
- serum creatinine level (ICR mice; versus PBS): no significant difference
- cell-associated HIV-1 DNA and RNA in spleen and bone marrow (HIV-1 JR-CSF): undetectable
- mice HIV-1 viremia-positive at 7 dpi (HIV-1 JR-CSF): 28.5%
- mice with viremia at 14 dpi (HIV-1 JR-CSF): 28.5%
- viral load at 7 dpi (HIV-1 JR-CSF): about 2.5 log10 copies/mL
- peptide-specific antibodies in plasma [2]: no significant detectable antibodies

Molecule: MTWEEWDKKIEEYTKKIEELIKKS [CP24, reference compound]
- IC50 [1]: 0.0195 µM
- Tm of the 6-HB formed with N36 (gp41 NHR peptide N36): 78.69 °C
- Kd (rhesus monkey IgG): 1000 µM
- in vitro cytotoxicity to M7 cells (M7 cells): no in vitro cytotoxicity
- in vitro cytotoxicity to MT-2 cells (MT-2 cells): no in vitro cytotoxicity
- serum ALT level (ICR mice; versus PBS): no significant difference
- serum creatinine level (ICR mice; versus PBS): no significant difference
- cell-associated HIV-1 DNA and RNA in spleen and bone marrow (HIV-1 JR-CSF): high levels
- mice HIV-1 viremia-positive at 7 dpi (HIV-1 JR-CSF): 50%
- mice with viremia at 14 dpi (HIV-1 JR-CSF): 62.5%
- viral load at 7 dpi (HIV-1 JR-CSF): about 3.6 log10 copies/mL
- peptide-specific antibodies in plasma [2]: no significant detectable antibodies
